{
  "source": "patent US5318970A",
  "about": "“Isoxazole compounds, pharmaceutically acceptable salts thereof and medical uses thereof” (Taiho Pharmaceutical Co., Ltd., priority 1990, dated 1994)",
  "key": {"[1]": {"target": "T1, 5-Lipoxygenase (Cavia porcellus, UniProt A0A286X958)", "T1 construct": "the polymorphonuclear leukocytes were collected and the cytosol fraction was obtained as an enzyme source; endogenous in cells; host or cells: guinea pig peritoneal polymorphonuclear leukocytes (casein-elicited), cytosol fraction", "T1 sequence (A0A286X958 1-674)": "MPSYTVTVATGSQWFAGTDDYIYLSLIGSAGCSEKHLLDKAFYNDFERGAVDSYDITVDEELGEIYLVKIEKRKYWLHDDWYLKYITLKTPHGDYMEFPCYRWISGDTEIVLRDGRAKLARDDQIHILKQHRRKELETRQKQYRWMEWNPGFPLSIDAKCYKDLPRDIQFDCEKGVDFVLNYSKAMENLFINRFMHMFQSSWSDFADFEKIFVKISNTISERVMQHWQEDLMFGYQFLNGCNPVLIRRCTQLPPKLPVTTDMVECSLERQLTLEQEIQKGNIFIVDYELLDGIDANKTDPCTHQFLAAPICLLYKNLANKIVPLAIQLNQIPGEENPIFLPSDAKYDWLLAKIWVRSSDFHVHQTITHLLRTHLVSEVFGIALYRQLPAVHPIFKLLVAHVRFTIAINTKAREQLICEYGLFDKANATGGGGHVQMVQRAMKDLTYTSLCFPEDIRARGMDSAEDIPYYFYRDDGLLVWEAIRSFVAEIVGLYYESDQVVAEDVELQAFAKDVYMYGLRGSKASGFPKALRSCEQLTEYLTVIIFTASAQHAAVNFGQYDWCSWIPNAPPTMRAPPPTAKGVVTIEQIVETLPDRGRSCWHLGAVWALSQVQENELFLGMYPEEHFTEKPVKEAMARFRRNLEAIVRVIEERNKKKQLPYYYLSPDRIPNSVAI", "test": "5-Lipoxygenase inhibitory effect (14C-arachidonic acid to 5-hydroxyeicosatetraenoic acid, cytosol of polymorphonuclear leukocytes)", "assay_type": "biochemical", "conditions": "guinea pig polymorphonuclear leukocyte cytosol; 5-hydroxyeicosatetraenoic acid by thin layer chromatography", "method": "(2) 5-Lipoxygenase inhibitory effect\nThe assay was carried out by the method described in Kenkichi Ochi et al., J. Biol. Chem., 258, 5754-5758 (1983).\nCasein was injected into the abdominal cavity of a guinea pig, and the polymorphonuclear leukocytes were collected and the cytosol fraction was obtained as an enzyme source. ^14 C-arachidonic acid was reacted with the enzyme and the test drugs at various concentrations over a predetermined period of time. The obtained 5-hydroxyeicosatetraenoic acid was separated by thin layer chromatography and the radioactivity was determined. The IC50 values were calculated by the comparison with the radioactivity of the control."}, "[2]": {"target": "Cyclooxygenase", "test": "Cyclooxygenase inhibitory effect (14C-arachidonic acid to prostaglandin E2, seminal vesicular gland microsomes)", "assay_type": "biochemical", "conditions": "prostaglandin E2 by thin layer chromatography", "method": "(1) Cyclooxygenase Inhibitory effect\nThis assay was carried out by the method described in Russell J. Taylor et al., Biochem. Pharmacol., 25, 2479-2484 (1976).\n^14 C-arachidonic acid was reacted with seminal vesicular gland microsomes and the test drugs at various concentrations over a predetermined period of time and the obtained prostaglandin E2 was separated by thin layer chromatography. The radioactivity of prostaglandin E2 was determined by liquid scintillation counter. The IC50 values were calculated by the comparison with the radioactivity of the control."}},
  "data": [
    {"smiles": "COc1ccc(-c2noc(CC(=O)NC(CN3CCN(CCCCCCCCCCO)CC3)c3ccccc3)c2-c2ccc(OC)cc2)cc1", "note": "(stereo not drawn) [Compound 7]", "values": [
      {"measurement": "IC50", "setting": "[1]", "value": 2500, "unit": "nM"},
      {"measurement": "IC50", "setting": "[2]", "value": 146, "unit": "nM"}
    ]},
    {"smiles": "COc1ccc(-c2noc(CC(=O)NCCN3CCN(CCCCCCCCCCO)CC3)c2-c2ccc(OC)cc2)cc1", "note": "[Compound 6]", "values": [
      {"measurement": "IC50", "setting": "[1]", "value": 1800, "unit": "nM"},
      {"measurement": "IC50", "setting": "[2]", "value": 121, "unit": "nM"}
    ]},
    {"smiles": "CCCCCCCCCCN1CCN(C(=O)CNC(=O)Cc2onc(-c3ccc(OC)cc3)c2-c2ccc(OC)cc2)CC1", "note": "[Compound 8]", "values": [
      {"measurement": "IC50", "setting": "[1]", "value": 5900, "unit": "nM"},
      {"measurement": "IC50", "setting": "[2]", "value": 66, "unit": "nM"}
    ]}
  ]
}
